The values that follow come from article PMC8682738, “Constrained peptides mimic a viral suppressor of RNA silencing” (Nucleic Acids Research, 2021).

Positions of bridges follow the written chain, without caps; N, C: chain ends. Non-standard residues stand in square brackets, D forms with d. Residues, ends and D or L forms follow the SMILES beside them. *: point of attachment. FITC = O=C1OC2(c3ccc(O)cc3Oc3cc(O)ccc32)c2ccc(NC(=S)*)cc21; R8 = C=CCCCCCC[C@@](C)(N)C(=O)O; S5 = C=CCCC[C@](C)(N)C(=O)O; AEEA = NCCOCCOCC(=O)O

Assay [1] relates to K562 human leukemia cells. Kind of assay: Peptide uptake by flow cytometry. Type of assay: cell-based. Particulars: fluorescein-labeled peptide 1 μM, 90 min. The protocol: 2 × 10^6 K562 cells were plated per well in 48-well plates in presence of fluorescein-labeled peptides (c = 1 μM, 0.5% DMSO) in a total volume of 300 μl. After 90 min, cells were treated with proteinase K (2 μg·ml^−1) for 10 min to remove extracellular peptides. Cells were extensively washed and total uptake of labeled peptide was measured by flow cytometry (Cytoflex, Beckman Coulter with the CytExpert software version 2.3). For each peptide, 20 000 events per sample were collected with >85% viable cells (forward/side scatter) that were considered for analysis using a 525/40 nm filter. DMSO was used as a control to distinguish general DMSO-related and peptide-specific effects. Each experiment was performed in triplicate.
(In general: In flow cytometry, cells or beads pass a laser one at a time.)

The next assay concerns pal-DNA. As to the kind of experiment: EMSA with ds DNA analog of pal-RNA. The assay is classed as binding. Particulars: fluorescein-labeled peptide 3 μM, oligonucleotide 9 μM. On the procedure: Electrophoretic mobility shift assays (EMSAs) were performed using a Bio-Rad Mini-Protean gel system paired with a direct current (DC) power source (PowerPac™ HC, Bio-Rad). […] After incubation, bound RNA was resolved from peptide-free RNA using 10% non-denaturing polyacrylamide gels at 120 V in running buffer (25 mM Tris (pH 8.0), 200 mM glycine, 20 mM NaCl) at 4°C for 1 h. Visualization of fluorescent gel-bound species was conducted using a Typhoon Trio + fluorescence scanner (GE Healthcare Life Sciences). For nucleic acid visualization, gels were stained using 2 μl of SYBR™ gold nucleic acid gel dye (Molecular Probes) in 20 ml of TAE buffer (40 mM Tris, 1 mM EDTA, 20 mM acetic acid) for 45 min at RT before being visualized using a FluorChem™ gel documentation system (Alpha Innotech). To assess B3 binding to different ds RNA sequences (Supplementary Figure S20), 6 μl solutions containing hairpin RNA (c = 1 μM) and fluorescein-labeled B3 (c = 2 μM) were incubated in binding buffer (TAE and 10% glycerol) at RT for 1 h, and then resolved using 15% non-denaturing polyacrylamide gels (acrylamide/bis-acrylamide (19:1) in TAE) at 150 V in running buffer (TAE) at 4°C for 1.5 h. Visualization of fluorescent gel-bound species was conducted using a Bio-Rad ChemiDoc (Bio-Rad). […]

Assay [2] has as its system pre-miR-21. Kind of assay: EMSA with pre-miR-21. The assay is classed as binding. The conditions noted are these: fluorescein-labeled peptide 6 μM, pre-miR-21 3 μM. On the procedure:
Electrophoretic mobility shift assays (EMSAs) were performed using a Bio-Rad Mini-Protean gel system paired with a direct current (DC) power source (PowerPac™ HC, Bio-Rad). Typically, 6 μl solutions containing ds RNA (c = 3 μM) and fluorescein-labeled peptide (c = 6 μM) were incubated in binding buffer (10 mM Tris (pH 8.0), 0.5 mM EDTA, 12.5% glycerol and 150 mM KCl) at 4°C for 1 h. After incubation, bound RNA was resolved from peptide-free RNA using 10% non-denaturing polyacrylamide gels at 120 V in running buffer (25 mM Tris (pH 8.0), 200 mM glycine, 20 mM NaCl) at 4°C for 1 h. Visualization of fluorescent gel-bound species was conducted using a Typhoon Trio + fluorescence scanner (GE Healthcare Life Sciences). For nucleic acid visualization, gels were stained using 2 μl of SYBR™ gold nucleic acid gel dye (Molecular Probes) in 20 ml of TAE buffer (40 mM Tris, 1 mM EDTA, 20 mM acetic acid) for 45 min at RT before being visualized using a FluorChem™ gel documentation system (Alpha Innotech). To assess B3 binding to different ds RNA sequences (Supplementary Figure S20), 6 μl solutions containing hairpin RNA (c = 1 μM) and fluorescein-labeled B3 (c = 2 μM) were incubated in binding buffer (TAE and 10% glycerol) at RT for 1 h, and then resolved using 15% non-denaturing polyacrylamide gels (acrylamide/bis-acrylamide (19:1) in TAE) at 150 V in running buffer (TAE) at 4°C for 1.5 h. […]
(In general: A gel shift assay detects complexes by their altered migration in electrophoresis.)

The test system of the next assay is ss-RNA miR-21 3´. As to the kind of experiment: EMSA with single-stranded RNA. Type of assay: binding. The conditions noted are these: fluorescein-labeled peptide 3 μM, oligonucleotide 9 μM.
The subject of a further assay is endogenous miR-21. Kind of assay: Pull-down of miR-21 from K562 cells. The assay is classed as cell-based, human. Particulars: biotinylated peptide 10 μM, streptavidin beads, qRT-PCR, triplicate. The protocol:
(§1) 2 × 10^6 K562 cells were incubated with N-terminally biotinylated peptides (c(peptide) = 10 μM, t = 2.5 h) for uptake on a rotating wheel at 37°C. The cells were extensively washed in PBS and lysed in lysis buffer (25 mM HEPES, pH 7.5, 150 mM NaCl, 0.05% IGEPAL CA-630, 1 mM EDTA) supplemented with 0.5 U/μl RNAse inhibitor (Superase-in, ThermoFisher). The lysate was cleared by centrifugation at 21 000 g at 4°C, an aliquot of the supernatant was removed and re-suspended in Trizol, while the remaining was incubated with streptavidin-coupled magnetic beads (Dynabeads M280, ThermoFisher) on a rotating wheel (2 h, 4°C). After magnetic separation and washing (3× in lysis buffer), the beads were re-suspended in 20 μl lysis buffer, re-suspended in Trizol (ThermoFisher), and 400 ng t-RNA was added per sample as a carrier. RNA was extracted from Trizol using the standard protocol and the qRT-PCR was performed according to a previously published protocol ([62]) using the primers h-miR21-3p-FW ([…]), h-miR21-3p-RV ([…]), h-miR21-5p-FW ([…]), h-miR21-5p-RV ([…]) in a CFX96 real-time machine (Bio-Rad). The relative enrichment was calculated as a ratio of copies in the immunoprecipitate over input normalized to the enrichment of the control peptide D1.
For orientation: In qPCR the cycle at which signal appears reflects the starting amount.

Assay [3] deals with pre-miR-21. Kind of assay: Pull-down of pre-miR-21 from K562 cells. The conditions noted are these: biotinylated peptide 10 μM, streptavidin beads, qRT-PCR, triplicate. Type of assay: cell-based, human. On the procedure: as §1

Consider `CC(C)C[C@@H]1NC(=O)[C@H](CCC(=O)O)NC(=O)[C@H](CO)NC(=O)[C@@](C)(NC(=O)[C@H](CCCNC(=N)N)NC(=O)[C@H](CCC(N)=O)NC(=O)[C@H](CCC(=O)O)NC(=O)[C@H](CO)NC(=O)[C@@H]2CCCN2C(=O)[C@H](CO)NC(=O)[C@H](CCCCN)NC(=O)[C@H](Cc2c[nH]cn2)NC(=O)[C@]2(C)CCCC=CCCCCCC[C@@](C)(NC(=O)[C@H](Cc3c[nH]cn3)NC(=O)[C@H](CCCNC(=N)N)NC(=O)[C@H](CCCCN)NC(=O)[C@H](CCCNC(=N)N)NC(=O)[C@H](CCC(N)=O)NC(=O)[C@H](C)NC(=O)[C@H](CCC(N)=O)NC(=O)[C@H](CCCCN)NC(=O)[C@H](CCCCN)NC(=O)COCCOCCNC(=S)Nc3ccc4c(c3)C(=O)OC43c4ccc(O)cc4Oc4cc(O)ccc43)C(=O)N[C@@H](CC(C)C)C(=O)N[C@@H](CC(N)=O)C(=O)N[C@@H](CCCNC(=N)N)C(=O)N[C@@H](CCCCN)C(=O)N[C@@H](CCC(=O)O)C(=O)N[C@@H](CCCNC(=N)N)C(=O)N2)CCCC=CCCC[C@@](C)(C(=O)N[C@@H](Cc2c[nH]cn2)C(=O)N[C@@H](C)C(=O)N[C@@H](CCCNC(=N)N)C(N)=O)NC1=O` [D1] ({FITC-AEEA}-KKQAQRKRH[R8]LNRKER[S5]HKSPSEQR[S5]SEL[S5]HAR-NH2; staple 10-17, 26-30), for which, in assay [1], the “cellular uptake (in words)” value is on record as “considerably enhanced cellular uptake”.

As to `CC(C)C[C@H](NC(=O)[C@]1(C)CCCC=CCCC[C@](C)(NC(=O)[C@H](CCC(=O)O)NC(=O)[C@H](CO)NC(=O)[C@@H]2CCCN2C(=O)[C@H](CO)NC(=O)[C@H](CCCCN)NC(=O)[C@H](Cc2c[nH]cn2)NC(=O)CNC(=O)[C@H](CCCNC(=N)N)NC(=O)[C@]2(C)CCCC=CCCC[C@](C)(NC(=O)[C@H](CCCCN)NC(=O)[C@H](Cc3c[nH]cn3)NC(=O)[C@H](CCCNC(=N)N)NC(=O)[C@H](CCCCN)NC(=O)[C@H](CCCNC(=N)N)NC(=O)[C@H](CCC(N)=O)NC(=O)[C@H](C)NC(=O)[C@H](CCC(N)=O)NC(=O)[C@H](CCCCN)NC(=O)[C@H](CCCCN)NC(=O)COCCOCCNC(=S)Nc3ccc4c(c3)C(=O)OC43c4ccc(O)cc4Oc4cc(O)ccc43)C(=O)N[C@@H](CC(N)=O)C(=O)N[C@@H](CCCNC(=N)N)C(=O)N[C@@H](CCCCN)C(=O)N2)C(=O)N[C@@H](CCCNC(=N)N)C(=O)N[C@@H](CCCNC(=N)N)C(=O)N[C@@H](CO)C(=O)N1)C(=O)N[C@@H](Cc1c[nH]c2ccccc12)C(=O)N[C@@H](Cc1c[nH]cn1)C(=O)N[C@@H](C)C(=O)N[C@@H](CCCNC(=N)N)C(N)=O` [B3] ({FITC-AEEA}-KKQAQRKRHK[S5]NRK[S5]RGHKSPSE[S5]RRS[S5]LWHAR-NH2; staple 11-15, 24-28), the “binding to ds DNA analog of pal-RNA in EMSA” value in the assay with pal-DNA is “did not bind”. Besides, in the assay with pre-miR-21 [2], the “binding to pre-miR-21 in EMSA” value was “indicated pre–miRNA-binding”. In addition, the “binding to single-stranded RNA in EMSA” value with ss-RNA miR-21 3´ is “did not bind”. The “enrichment of miR-21 relative to control peptide D1” value with endogenous miR-21 is 35 fold. In addition, in the assay on pre-miR-21 [3], the “enrichment of pre-miR-21 relative to control peptide D1” value was determined as 4 fold.

On to `CC(C)C[C@@H]1NC(=O)[C@@](C)(NC(=O)[C@H](CO)NC(=O)[C@H](CCCNC(=N)N)NC(=O)[C@H](CCCNC(=N)N)NC(=O)[C@H](CCC(N)=O)NC(=O)[C@H](CCC(=O)O)NC(=O)[C@H](CO)NC(=O)[C@@H]2CCCN2C(=O)[C@H](CO)NC(=O)[C@H](CCCCN)NC(=O)[C@H](Cc2c[nH]cn2)NC(=O)CNC(=O)[C@H](CCCNC(=N)N)NC(=O)[C@H](CCC(=O)O)NC(=O)[C@H](CCCCN)NC(=O)[C@H](CCCNC(=N)N)NC(=O)[C@H](CC(N)=O)NC(=O)[C@]2(C)CCCC=CCCCCCC[C@@](C)(NC(=O)[C@H](CCC(N)=O)NC(=O)[C@H](CCCCN)NC(=O)[C@H](CCCCN)NC(=O)COCCOCCNC(=S)Nc3ccc4c(c3)C(=O)OC43c4ccc(O)cc4Oc4cc(O)ccc43)C(=O)N[C@@H](CCC(N)=O)C(=O)N[C@@H](CCCNC(=N)N)C(=O)N[C@@H](CCCCN)C(=O)N[C@@H](CCCNC(=N)N)C(=O)N[C@@H](Cc3c[nH]cn3)C(=O)N[C@@H](CCCCN)C(=O)N2)CCCC=CCCC[C@@](C)(C(=O)N[C@@H](CCCNC(=N)N)C(N)=O)NC(=O)[C@H](Cc2c[nH]cn2)NC(=O)[C@H](Cc2c[nH]c3ccccc23)NC1=O` [C1] ({FITC-AEEA}-KKQ[R8]QRKRHK[S5]NRKERGHKSPSEQRRS[S5]LWH[S5]R-NH2; staple 4-11, 28-32), for which the “binding to ds DNA analog of pal-RNA in EMSA” value in the assay with pal-DNA is on record as “did not bind”. Besides, the “binding to pre-miR-21 in EMSA” value in the assay with pre-miR-21 [2] is listed as “indicated pre–miRNA-binding”. For the same compound, the “fold increase in uptake relative to wt33” value in assay [1] is given as 264 fold. The “binding to single-stranded RNA in EMSA” value in the assay with ss-RNA miR-21 3´ was “did not bind”. Further, in the assay on endogenous miR-21, the “enrichment of miR-21 relative to control peptide D1” value is on record as “enrichment”. The “enrichment of pre-miR-21 relative to control peptide D1” value with pre-miR-21 [3] is listed as “did not show detectable pre-miR-21 enrichment”.
